Results from ChEMBL document CHEMBL5247643, “Discovery and Characterization of BAY-805, a Potent and Selective Inhibitor of Ubiquitin-Specific Protease USP21” (J Med Chem, 2023).
Calls of active or inactive are those of the source. The calls are words filed in the database; no cut-off is given here.

Tests used:
[1] = molecular target: T1, Ubiquitin carboxyl-terminal hydrolase 5 (Homo sapiens) (UniProt P45974); test: Inhibition of human USP5 using ubiquitin rhodamine 110 as substrate at 10 to 50 uM by fluorometric assay; conditions: dose 10-50 µM
T1 sequence (whole entry): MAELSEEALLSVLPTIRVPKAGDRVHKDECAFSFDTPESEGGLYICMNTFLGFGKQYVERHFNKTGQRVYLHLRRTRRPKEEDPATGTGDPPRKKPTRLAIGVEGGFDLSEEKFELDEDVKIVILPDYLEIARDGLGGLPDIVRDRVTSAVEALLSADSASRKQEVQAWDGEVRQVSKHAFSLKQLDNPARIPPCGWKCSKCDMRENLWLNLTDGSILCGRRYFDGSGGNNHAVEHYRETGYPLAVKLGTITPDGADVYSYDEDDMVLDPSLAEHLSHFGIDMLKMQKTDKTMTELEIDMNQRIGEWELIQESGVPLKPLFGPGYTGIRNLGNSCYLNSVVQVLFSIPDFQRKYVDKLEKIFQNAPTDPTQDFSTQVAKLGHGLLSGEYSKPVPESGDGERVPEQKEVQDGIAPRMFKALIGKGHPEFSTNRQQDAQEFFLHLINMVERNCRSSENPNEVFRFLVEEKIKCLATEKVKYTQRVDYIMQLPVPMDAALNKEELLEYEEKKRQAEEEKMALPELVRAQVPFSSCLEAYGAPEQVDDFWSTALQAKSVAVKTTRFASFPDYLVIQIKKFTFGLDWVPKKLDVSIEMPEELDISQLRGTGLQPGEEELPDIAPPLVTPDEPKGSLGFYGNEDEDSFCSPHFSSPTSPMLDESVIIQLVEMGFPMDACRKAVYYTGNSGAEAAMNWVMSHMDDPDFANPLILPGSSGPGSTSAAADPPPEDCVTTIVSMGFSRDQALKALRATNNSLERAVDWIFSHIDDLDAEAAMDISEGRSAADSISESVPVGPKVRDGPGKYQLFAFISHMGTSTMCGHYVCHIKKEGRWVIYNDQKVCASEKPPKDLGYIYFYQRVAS

[2] = molecular target: Ubiquitin carboxyl-terminal hydrolase 7 (Homo sapiens) (UniProt Q93009); test: Inhibition of human USP7 using ubiquitin rhodamine 110 as substrate at 10 to 50 uM by fluorometric assay; conditions: dose 10-50 µM
A549 = test: Antiproliferative activity against human A549 cells assessed as reduction in cell viability up to 30 uM incubated for 72 hrs by CellTiter-Glo luminescent assay; type: functional, cell-based
[3] = molecular target: Ubiquitin carboxyl-terminal hydrolase 9X (Homo sapiens) (UniProt Q93008); test: Inhibition of human USP9X using ubiquitin rhodamine 110 as substrate at 10 to 50 uM by fluorometric assay; conditions: dose 10-50 µM
[4] = molecular target: T2, Ubiquitin carboxyl-terminal hydrolase 8 (Homo sapiens) (UniProt P40818); test: Inhibition of human USP8 using ubiquitin rhodamine 110 as substrate at 10 to 50 uM by fluorometric assay; conditions: dose 10-50 µM
T2 sequence (whole entry): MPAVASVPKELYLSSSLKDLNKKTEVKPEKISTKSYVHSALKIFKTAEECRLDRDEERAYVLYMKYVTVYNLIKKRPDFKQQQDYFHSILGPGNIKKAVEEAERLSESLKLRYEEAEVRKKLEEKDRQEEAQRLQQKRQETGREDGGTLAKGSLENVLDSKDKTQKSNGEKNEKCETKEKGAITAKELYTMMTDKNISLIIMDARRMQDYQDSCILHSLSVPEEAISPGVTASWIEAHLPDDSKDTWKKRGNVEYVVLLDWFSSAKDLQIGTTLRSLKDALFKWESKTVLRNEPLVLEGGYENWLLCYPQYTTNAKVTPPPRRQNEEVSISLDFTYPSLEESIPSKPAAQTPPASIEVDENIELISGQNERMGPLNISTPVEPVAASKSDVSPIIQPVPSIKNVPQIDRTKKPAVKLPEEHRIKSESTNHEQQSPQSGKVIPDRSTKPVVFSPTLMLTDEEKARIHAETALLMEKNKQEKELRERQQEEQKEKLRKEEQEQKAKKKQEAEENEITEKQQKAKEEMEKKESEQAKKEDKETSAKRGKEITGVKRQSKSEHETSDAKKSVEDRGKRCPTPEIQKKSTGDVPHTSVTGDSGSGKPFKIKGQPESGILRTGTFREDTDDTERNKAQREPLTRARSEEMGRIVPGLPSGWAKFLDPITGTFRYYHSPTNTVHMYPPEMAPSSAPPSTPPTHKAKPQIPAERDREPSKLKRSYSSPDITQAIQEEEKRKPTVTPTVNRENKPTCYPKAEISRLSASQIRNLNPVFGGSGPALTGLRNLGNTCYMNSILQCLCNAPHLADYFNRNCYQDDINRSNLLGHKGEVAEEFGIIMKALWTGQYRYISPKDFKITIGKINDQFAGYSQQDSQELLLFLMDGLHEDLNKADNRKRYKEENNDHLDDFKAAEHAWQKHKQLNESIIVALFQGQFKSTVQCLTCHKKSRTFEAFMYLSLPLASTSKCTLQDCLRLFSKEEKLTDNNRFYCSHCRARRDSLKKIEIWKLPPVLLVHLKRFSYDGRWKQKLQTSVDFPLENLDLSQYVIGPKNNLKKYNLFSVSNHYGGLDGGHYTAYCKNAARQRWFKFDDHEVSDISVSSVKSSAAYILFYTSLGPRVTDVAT

[5] = molecular target: T2, Ubiquitin carboxyl-terminal hydrolase 8 (Homo sapiens); test: Inhibition of human USP8 (734 to 1110 residues) expressed in Escherichia coli BL21 (DE3) using ubiquitin rhodamine 110 as substrate assessed as remaining enzyme activity at 10 to 50 uM by fluorometric assay; conditions: dose 10-50 µM
[6] = molecular target: T3, Ubiquitin carboxyl-terminal hydrolase 30 (Homo sapiens) (UniProt Q70CQ3); test: Inhibition of human USP30 (57 to 517 residues) expressed in Sf9 cells using ubiquitin rhodamine 110 as substrate assessed as remaining enzyme activity at 10 to 50 uM by fluorometric assay; conditions: dose 10-50 µM
T3 sequence (whole entry): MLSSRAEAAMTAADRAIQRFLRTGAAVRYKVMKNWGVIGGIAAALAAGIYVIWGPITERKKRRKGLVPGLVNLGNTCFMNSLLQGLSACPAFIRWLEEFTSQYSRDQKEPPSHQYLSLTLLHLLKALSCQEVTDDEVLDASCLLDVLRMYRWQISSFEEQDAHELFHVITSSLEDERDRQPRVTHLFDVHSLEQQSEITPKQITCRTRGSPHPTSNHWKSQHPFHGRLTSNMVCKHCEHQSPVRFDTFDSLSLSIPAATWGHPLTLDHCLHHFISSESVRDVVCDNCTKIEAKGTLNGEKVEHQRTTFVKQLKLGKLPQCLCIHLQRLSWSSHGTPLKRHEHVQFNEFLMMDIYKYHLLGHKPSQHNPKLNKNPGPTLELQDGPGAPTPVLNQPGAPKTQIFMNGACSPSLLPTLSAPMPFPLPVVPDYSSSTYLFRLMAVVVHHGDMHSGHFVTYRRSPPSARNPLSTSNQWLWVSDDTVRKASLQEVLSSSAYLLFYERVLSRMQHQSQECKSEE

Sequence of Ubiquitin carboxyl-terminal hydrolase 7 (Homo sapiens) (Q93009 whole entry, looked up): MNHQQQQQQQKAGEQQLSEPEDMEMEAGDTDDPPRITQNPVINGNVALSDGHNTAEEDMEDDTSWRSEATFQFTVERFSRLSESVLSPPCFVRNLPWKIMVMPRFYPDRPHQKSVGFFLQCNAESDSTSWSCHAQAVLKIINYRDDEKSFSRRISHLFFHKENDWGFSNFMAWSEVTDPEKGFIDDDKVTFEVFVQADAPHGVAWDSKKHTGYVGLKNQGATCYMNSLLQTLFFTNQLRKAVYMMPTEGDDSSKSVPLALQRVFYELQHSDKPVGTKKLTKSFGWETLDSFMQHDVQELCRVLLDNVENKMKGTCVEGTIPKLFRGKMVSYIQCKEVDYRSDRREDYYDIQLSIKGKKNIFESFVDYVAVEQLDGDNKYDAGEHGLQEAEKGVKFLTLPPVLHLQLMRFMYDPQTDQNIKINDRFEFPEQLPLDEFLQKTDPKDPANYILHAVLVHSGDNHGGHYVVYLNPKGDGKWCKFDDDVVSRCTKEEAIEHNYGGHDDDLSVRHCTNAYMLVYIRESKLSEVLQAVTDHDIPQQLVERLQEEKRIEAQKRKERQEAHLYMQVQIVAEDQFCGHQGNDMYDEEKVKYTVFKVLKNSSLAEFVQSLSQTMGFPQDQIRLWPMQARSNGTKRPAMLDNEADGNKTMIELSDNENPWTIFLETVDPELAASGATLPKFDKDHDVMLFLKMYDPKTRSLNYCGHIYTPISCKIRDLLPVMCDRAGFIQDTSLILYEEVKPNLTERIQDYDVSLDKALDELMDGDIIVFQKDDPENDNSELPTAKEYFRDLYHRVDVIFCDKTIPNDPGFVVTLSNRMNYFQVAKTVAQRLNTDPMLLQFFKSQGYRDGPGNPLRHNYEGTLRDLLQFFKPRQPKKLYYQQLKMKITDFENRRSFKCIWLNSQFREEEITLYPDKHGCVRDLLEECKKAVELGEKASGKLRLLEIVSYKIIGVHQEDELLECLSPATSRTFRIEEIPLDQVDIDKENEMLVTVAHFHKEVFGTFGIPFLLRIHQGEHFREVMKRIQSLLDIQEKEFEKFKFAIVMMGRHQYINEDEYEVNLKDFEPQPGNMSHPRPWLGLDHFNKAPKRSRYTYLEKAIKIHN
Sequence of Ubiquitin carboxyl-terminal hydrolase 9X (Homo sapiens) (Q93008 whole entry): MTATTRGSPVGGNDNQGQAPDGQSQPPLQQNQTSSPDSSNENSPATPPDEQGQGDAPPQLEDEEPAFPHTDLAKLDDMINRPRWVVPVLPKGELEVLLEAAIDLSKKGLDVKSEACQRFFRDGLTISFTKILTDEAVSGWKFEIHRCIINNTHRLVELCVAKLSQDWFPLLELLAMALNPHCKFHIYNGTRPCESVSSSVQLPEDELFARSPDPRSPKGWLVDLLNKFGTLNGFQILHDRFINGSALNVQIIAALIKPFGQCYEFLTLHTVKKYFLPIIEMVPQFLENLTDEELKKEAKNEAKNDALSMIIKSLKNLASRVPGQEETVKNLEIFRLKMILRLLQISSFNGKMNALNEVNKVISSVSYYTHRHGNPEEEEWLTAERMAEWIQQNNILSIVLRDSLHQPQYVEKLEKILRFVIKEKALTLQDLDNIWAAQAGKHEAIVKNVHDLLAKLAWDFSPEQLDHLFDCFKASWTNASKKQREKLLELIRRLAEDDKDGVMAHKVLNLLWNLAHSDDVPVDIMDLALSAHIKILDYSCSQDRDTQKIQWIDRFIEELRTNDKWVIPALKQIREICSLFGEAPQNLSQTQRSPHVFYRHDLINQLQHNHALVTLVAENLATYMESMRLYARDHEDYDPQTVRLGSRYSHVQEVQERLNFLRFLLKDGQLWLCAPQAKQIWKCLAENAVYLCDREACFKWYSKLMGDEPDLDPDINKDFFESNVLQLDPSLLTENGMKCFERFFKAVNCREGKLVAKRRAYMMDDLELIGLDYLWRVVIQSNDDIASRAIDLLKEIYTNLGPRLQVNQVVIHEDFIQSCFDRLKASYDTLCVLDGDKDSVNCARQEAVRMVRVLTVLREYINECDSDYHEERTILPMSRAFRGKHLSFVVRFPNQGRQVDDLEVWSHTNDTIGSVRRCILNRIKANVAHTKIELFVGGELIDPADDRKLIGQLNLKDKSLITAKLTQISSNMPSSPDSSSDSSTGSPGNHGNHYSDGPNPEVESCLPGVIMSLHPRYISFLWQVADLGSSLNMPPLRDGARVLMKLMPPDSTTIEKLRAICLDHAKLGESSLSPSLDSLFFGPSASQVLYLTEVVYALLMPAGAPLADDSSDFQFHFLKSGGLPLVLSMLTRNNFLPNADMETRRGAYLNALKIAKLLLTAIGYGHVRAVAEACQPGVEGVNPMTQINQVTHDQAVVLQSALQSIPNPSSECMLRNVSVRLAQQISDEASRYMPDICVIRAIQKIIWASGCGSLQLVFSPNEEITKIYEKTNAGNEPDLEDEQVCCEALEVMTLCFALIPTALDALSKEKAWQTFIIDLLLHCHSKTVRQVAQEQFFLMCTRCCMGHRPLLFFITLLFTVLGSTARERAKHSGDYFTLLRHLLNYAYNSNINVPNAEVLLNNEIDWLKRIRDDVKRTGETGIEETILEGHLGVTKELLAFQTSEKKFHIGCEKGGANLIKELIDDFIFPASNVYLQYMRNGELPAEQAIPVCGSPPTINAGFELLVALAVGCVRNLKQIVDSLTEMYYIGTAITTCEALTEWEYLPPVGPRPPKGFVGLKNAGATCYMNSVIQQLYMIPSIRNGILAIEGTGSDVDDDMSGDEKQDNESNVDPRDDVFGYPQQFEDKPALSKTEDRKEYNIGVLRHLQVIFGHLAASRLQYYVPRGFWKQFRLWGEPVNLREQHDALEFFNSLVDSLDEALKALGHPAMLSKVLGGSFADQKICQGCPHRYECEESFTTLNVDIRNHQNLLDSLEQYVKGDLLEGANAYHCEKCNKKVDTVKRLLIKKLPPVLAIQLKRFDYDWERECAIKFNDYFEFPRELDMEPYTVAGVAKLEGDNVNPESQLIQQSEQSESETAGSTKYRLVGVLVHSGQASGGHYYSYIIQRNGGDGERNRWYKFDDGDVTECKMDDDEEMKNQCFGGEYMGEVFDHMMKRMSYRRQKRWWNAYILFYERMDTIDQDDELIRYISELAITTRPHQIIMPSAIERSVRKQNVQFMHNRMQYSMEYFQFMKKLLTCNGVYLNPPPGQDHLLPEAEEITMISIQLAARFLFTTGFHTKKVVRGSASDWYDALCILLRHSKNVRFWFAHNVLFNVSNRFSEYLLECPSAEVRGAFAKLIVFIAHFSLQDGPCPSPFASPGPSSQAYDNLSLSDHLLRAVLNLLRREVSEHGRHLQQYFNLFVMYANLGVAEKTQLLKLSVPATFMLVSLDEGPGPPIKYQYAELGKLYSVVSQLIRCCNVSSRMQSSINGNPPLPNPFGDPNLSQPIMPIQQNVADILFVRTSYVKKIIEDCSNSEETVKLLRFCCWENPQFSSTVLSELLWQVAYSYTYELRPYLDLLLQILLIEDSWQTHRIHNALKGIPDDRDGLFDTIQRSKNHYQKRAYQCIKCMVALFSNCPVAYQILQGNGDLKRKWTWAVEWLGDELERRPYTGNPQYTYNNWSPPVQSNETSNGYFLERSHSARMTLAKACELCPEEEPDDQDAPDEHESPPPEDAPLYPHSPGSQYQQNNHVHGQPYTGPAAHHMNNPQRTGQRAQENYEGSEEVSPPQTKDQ

| inhibition [1] | inhibition [2] | inhibition [3] | inhibition [4] | Activity [5] | Activity [6] | Compound | Activity (A549) |
| --- | --- | --- | --- | --- | --- | --- | --- |
| inactive | inactive | inactive | inactive | – | – | CC(C)C[C@H](NC(=O)C1(C(F)(F)F)CCCCC1)C(=O)Nc1nnc(Cc2ccc(C#N)cc2)s1 | inactive |
| – | – | – | – | < 50% | < 50% | CC(NC(=O)C1CCCC1)C(=O)Nc1nnc(Cc2ccc([N+](=O)[O-])cc2)s1 (racemic) | – |
